Results taken from publication PMC3256212, “Mechanism and Function of Drosophila capa GPCR: A Desiccation Stress-Responsive Receptor with Functional Homology to Human NeuromedinU Receptor” (PLoS ONE, 2012).
Ends that are not written are not given here.

T1: capaR (CG14575) (Drosophila melanogaster, UniProt Q8ITC7)
T1 construct: The ORF of capaR was amplified from whole fly cDNA as template; expressed in transfected cells; host or cells: Drosophila S2 cells (pMT/V5-His TOPO, CuSO4 induction)
T1 sequence (Q8ITC7 1-477): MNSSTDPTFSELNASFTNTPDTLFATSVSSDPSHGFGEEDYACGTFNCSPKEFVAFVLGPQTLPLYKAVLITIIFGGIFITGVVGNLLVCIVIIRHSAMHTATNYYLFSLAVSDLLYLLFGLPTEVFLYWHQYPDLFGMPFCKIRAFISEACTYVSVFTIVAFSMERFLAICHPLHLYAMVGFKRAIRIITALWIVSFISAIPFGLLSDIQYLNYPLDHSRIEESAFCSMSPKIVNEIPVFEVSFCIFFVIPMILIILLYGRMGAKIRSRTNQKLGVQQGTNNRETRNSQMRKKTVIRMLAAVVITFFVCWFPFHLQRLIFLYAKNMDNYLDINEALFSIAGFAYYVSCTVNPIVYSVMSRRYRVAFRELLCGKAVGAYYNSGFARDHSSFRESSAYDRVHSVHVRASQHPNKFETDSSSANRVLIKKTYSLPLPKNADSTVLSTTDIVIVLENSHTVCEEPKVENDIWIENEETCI

T2: capa receptor (capaR, CG14575) expressed in S2 cells (D. melanogaster) (UniProt Q8ITC7)
T2 sequence: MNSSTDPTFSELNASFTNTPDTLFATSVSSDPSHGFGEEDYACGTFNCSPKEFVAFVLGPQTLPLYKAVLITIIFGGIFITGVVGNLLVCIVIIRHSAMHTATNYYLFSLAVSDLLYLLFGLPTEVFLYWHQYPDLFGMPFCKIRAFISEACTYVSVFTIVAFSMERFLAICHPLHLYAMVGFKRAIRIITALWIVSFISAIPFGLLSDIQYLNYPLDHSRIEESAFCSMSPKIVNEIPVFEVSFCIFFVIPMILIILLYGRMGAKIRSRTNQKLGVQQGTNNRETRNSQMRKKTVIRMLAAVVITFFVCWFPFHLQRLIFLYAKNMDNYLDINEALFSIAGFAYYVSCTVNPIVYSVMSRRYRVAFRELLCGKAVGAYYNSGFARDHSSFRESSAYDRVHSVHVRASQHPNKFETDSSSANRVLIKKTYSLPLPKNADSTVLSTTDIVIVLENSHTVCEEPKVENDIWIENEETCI

B1: Human neuromedin U-25 (peptide)
peptide: FRVDEEFQSPFASQSRGYFLFRPRN-NH2
B2: Drm-capa-1 (peptide)
peptide: GANMGLYAFPRV-NH2
B3: Drm-capa-2 (peptide)
peptide: ASGLVAFPRV-NH2

Assays:
NMR 1 = system: NMR 1; parameters: method as in earlier work; settings: CHO cells; ref 39 (Fujii et al.); cited from earlier work
phospholipase C (PLC) = experiment: PLC inhibition: capa-1-induced [Ca2+]i response in S2-capaR cells; type: cell-based, Drosophila; settings: Fig. 1D
Method: (§1) Drosophila S2 cells, cultured under standard conditions were transiently transfected with the apoaequorin ORF [21] and a receptor ORF construct, and expression induced using CuSO4. Transfected S2 cells were harvested and incubated with 2.5 µM coelenterazine in the dark at RT for 1–2 h as previously described. 25,000 cells were then placed in 135 µl Schneider's medium supplemented with 10% FCS in a well of a white polystyrene 96-well plate (Berthold Technologies). Bioluminescence recordings were carried out using a Mithras LB940 automated 96-well plate reader (Berthold Technologies) and MikroWin software. 15 µl of each of different peptides were applied to final concentrations as required. At the end of each recording samples were disrupted by the addition of 100 µl lysis solution, and the [Ca^2+] concentrations calculated as previously described. For assays in Ca^2+-free medium, transfected cells were collected and pelleted after incubation with coelenterazine. Cell pellets were re-suspended in Ca^2+-free Schneider's medium (Invitrogen Inc.) without FCS and collected by centrifugation. The washing and pelleting procedure was repeated once more. Experiments were then carried out on 25,000 cells per sample as above. […]

capaR (CG14575) = biological target: T1, capaR (CG14575); experiment: [Ca2+]i (aequorin) in capaR-transfected S2 cells; type: cell-based; settings: for effect on [Ca2+]i via capaR: 10^−7 M, S2 cells (Fig. 3A); for EC50: S2 cells expressing capaR and apoaequorin, maximal - background, mean ± S.E.M., N = 6 (Fig. 1C), read-out: EC50 for stimulated [Ca2+]i responses via capaR
Description: The ORF of capaR was amplified from whole fly cDNA as template using the primers 5′-[…]-3′ and 5′-[…]-3′ and cloned into pMT/V5-His TOPO vector (Invitrogen). The eYFP ORF was fused in-frame at the C-terminus of the capaR using KpnI and ApaI sites and the tagged construct was cloned into the pMT/V5-His TOPO vector.
(§2) The capa peptides Drm-capa-1 (GANMGLYAFPRVamide), Drm-capa-2 (ASGLVAFPRVamide), Drm-PK-1 (TGPSASSGLWFGPRLamide), Drm-PK-2 (SVPFKPRLamide) and hugin gamma (hugg, pQLQSNGEPAYRVRTPRL-amide) were synthesised as C-terminally amidated peptides (Biomatik Corporation, Canada). Peptides were dissolved in distilled ACN/H2O to a concentration of 1 mM and then diluted to the required working concentration in Schneider's medium (Invitrogen Inc.). Human neuromedin U-25 was purchased from Sigma. Rabbit polyclonal antibody to porcine neuromedinU-8 was purchased from Progen biotechnik (Heidelberg, Germany). Rabbit capa precursor peptide used was described in [21] Rabbit anti-peptide antibody was raised against the capaR epitope (CQQGTNNRETRNSQM) by Genosphere Biotechnologies (Paris, France) and purified on a HiTrap NHS-activated HP column (Amersham Pharmacia Bio-tech; Buckinghamshire, UK) according to the manufacturer's instructions. Immunohistochemistry was carried out as described previously. Mouse anti-GFP primary antibody (Zymed) and the antiserum to neuromedinU-8 were all diluted 1∶1000 or, in the case of the pre-immune serum, the affinity-purified capaR antibody and the antiserum to the capa precursor peptide, 1∶500. Incubations in the primary antibodies were performed overnight. A FITC-conjugated affinity-purified goat anti-mouse antibody (Jackson Immunologicals) was used in a dilution of 1∶1,000 for visualization of the mouse monoclonal anti-GFP. A Texas red-conjugated affinity-purified goat anti-rabbit antibody (Jackson Immunologicals) was used at a dilution of 1∶1,000 for visualization of the rabbit capaR antiserum.
Drosophila S2 cells, cultured under standard conditions were transiently transfected with the apoaequorin ORF [21] and a receptor ORF construct, and expression induced using CuSO4. Transfected S2 cells were harvested and incubated with 2.5 µM coelenterazine in the dark at RT for 1–2 h as previously described. 25,000 cells were then placed in 135 µl Schneider's medium supplemented with 10% FCS in a well of a white polystyrene 96-well plate (Berthold Technologies). Bioluminescence recordings were carried out using a Mithras LB940 automated 96-well plate reader (Berthold Technologies) and MikroWin software. 15 µl of each of different peptides were applied to final concentrations as required. At the end of each recording samples were disrupted by the addition of 100 µl lysis solution, and the [Ca^2+] concentrations calculated as previously described. For assays in Ca^2+-free medium, transfected cells were collected and pelleted after incubation with coelenterazine. Cell pellets were re-suspended in Ca^2+-free Schneider's medium (Invitrogen Inc.) without FCS and collected by centrifugation. The washing and pelleting procedure was repeated once more. Experiments were then carried out on 25,000 cells per sample as above. To verify whether the observed calcium signal was linked to phospholipase C (PLC) activation, S2-capaR cells were preincubated with the PLC inhibitor U73122 at concentration of 10^−3 M to 10^−8 M for 10 min. Luminometry experiments were carried out on live, intact tubules expressing a targeted transgene for cytosolic-targeted apoaequorin in either principal or stellate cells as previously described, [22]. For in vivo tubule experiments, flies of the following genotypes were used: c42aeq, capaR-GAL4, UAS-capaR, UAS-capaR RNAi, UAS-NMUR 2 and the resulting progeny from GAL4>UAS crosses.

NMU receptor 2 (NMUR 2) = biological target: T3, NMU receptor 2 (NMUR 2) (Homo sapiens, UniProt Q9GZQ4); experiment: [Ca2+]i (aequorin) in NMUR 2-transfected S2 cells; type: cell-based; settings: 10^−7 M, S2 cells (Fig. 3B)
T3 construct: expressed in transfected cells; host or cells: Drosophila S2 cells (pMT/V5-His TOPO)
T3 sequence (Q9GZQ4 whole entry): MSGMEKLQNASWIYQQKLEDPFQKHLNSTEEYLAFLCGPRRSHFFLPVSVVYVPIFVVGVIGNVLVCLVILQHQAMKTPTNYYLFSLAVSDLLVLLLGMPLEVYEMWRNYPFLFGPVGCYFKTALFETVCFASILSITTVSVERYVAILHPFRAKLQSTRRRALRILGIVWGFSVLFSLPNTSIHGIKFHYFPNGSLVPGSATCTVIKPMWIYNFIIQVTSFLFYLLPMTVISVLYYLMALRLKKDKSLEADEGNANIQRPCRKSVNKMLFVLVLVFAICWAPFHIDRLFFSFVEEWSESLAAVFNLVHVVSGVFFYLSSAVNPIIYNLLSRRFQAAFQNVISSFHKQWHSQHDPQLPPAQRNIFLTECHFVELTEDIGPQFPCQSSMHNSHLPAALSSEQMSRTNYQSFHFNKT
Method: as §2
as §1, with “more.” for “more. Experiments were then carried out on 25,000 cells per sample as above.”

Malpighian tubule = experiment: Fluid transport by wild-type Malpighian tubules; parameters: species or system Drosophila melanogaster; settings: 10^−7 M; mean ± SEM, N = 6–10, Student's t-test P<0.05 (Fig. 4A)
Method: Fluid transport assays were carried out as previously described using live, intact tubules dissected from 7-day-old adults with the following genotypes: wild-type Canton-S, c42-GAL4>UAS-capaR RNAi, actin-GAL4>UAS-NMUR 2. Fluid droplets were collected every 10 min, and the volumes of fluid were calculated. Basal rates of fluid secretion were monitored for 30 min, whereupon peptide was added, and the secretion rate was then recorded for a further 30 min.

CG8795 (hugin receptor) = experiment: [Ca2+]i (aequorin) in CG8795-transfected S2 cells; type: cell-based, Drosophila; settings: 10^−7 M, S2 cells (Fig. 3C)
Method: as §2, with “A Texas red-conjugated affinity-purified goat anti-rabbit antibody (Jackson Immunologicals) was used at a dilution of 1∶1,000 for visualization of the rabbit capaR antiserum.” left out
Drosophila S2 cells, cultured under standard conditions were transiently transfected with the apoaequorin ORF [21] and a receptor ORF construct, and expression induced using CuSO4. […] Bioluminescence recordings were carried out using a Mithras LB940 automated 96-well plate reader (Berthold Technologies) and MikroWin software. […] At the end of each recording samples were disrupted by the addition of 100 µl lysis solution, and the [Ca^2+] concentrations calculated as previously described. […]

[1] = biological target: human neuromedin U receptor 2 (human) (UniProt Q9GZQ4)
human neuromedin U receptor 2 (human), sequence (Q9GZQ4 whole entry): as above

[2] = biological target: T2, capa receptor (capaR, CG14575) expressed in S2 cells (D. melanogaster)
[3] = biological target: T2, capa receptor (capaR, CG14575) expressed in S2 cells (D. melanogaster); remark: listed apart in the source

| Molecule | effect on [Ca2+]i via capaR (capaR (CG14575)) | effect on [Ca2+]i via NMUR 2 (NMU receptor 2 (NMUR 2)) | fluid transport by wild-type tubules (Malpighian tubule) | effect on [Ca2+]i via CG8795 (CG8795 (hugin receptor)) | also measured |
| --- | --- | --- | --- | --- | --- |
| MNYLAFPRM-NH2 [SCPB] |  |  |  |  | agonistic activity to NMR 1 (NMR 1): significant agonistic activity |
| COc1ccc2c(c1)CC[C@@H]1[C@@H]2CC[C@]2(C)[C@@H](NCCCCCCN3C(=O)C=CC3=O)CC[C@@H]12 [U73122] |  |  |  |  | inhibition of capa-1-induced [Ca2+]i response (phospholipase C (PLC)): inhibited by the widely-used PLC inhibitor (U73122) in a dose-dependent manner |
| pQLQSNGEPAYRVRTPRL-amide [hugg, hugin gamma, p…-amide] | but not hugg nor Drm-PK-2, increases intracellular calcium ([Ca^2+]i) levels via capaR | increases [Ca^2+]i via NMUR 2 but to a reduced level compared to capa-1 | not with Drm-PK-1, hugg, Drm-PK-2 | stimulates increased [Ca^2+]i levels |  |
| TGPSASSGLWFGPRL-NH2 [Drm-PK-1, Drosophila pyrokinin, …amide] | do not have effects on either capaR | do not have effects on either capaR (Fig. 3A) or NMUR 2 | not with Drm-PK-1, hugg, Drm-PK-2 | stimulates increased [Ca^2+]i levels |  |
| CSCC[C@H](NC(=O)[C@H](CC(N)=O)NC(=O)[C@H](C)NC(=O)CN)C(=O)NCC(=O)N[C@@H](CC(C)C)C(=O)N[C@@H](Cc1ccc(O)cc1)C(=O)N[C@@H](C)C(=O)N[C@@H](Cc1ccccc1)C(=O)N1CCC[C@H]1C(=O)N[C@@H](CCCNC(=N)N)C(=O)N[C@H](C(N)=O)C(C)C [capa-1] |  |  |  |  | EC50 (capaR (CG14575)): 3.06 nM |
| CC(C)C[C@H](NC(=O)CNC(=O)[C@H](CO)NC(=O)[C@H](C)N)C(=O)N[C@H](C(=O)N[C@@H](C)C(=O)N[C@@H](Cc1ccccc1)C(=O)N1CCC[C@H]1C(=O)N[C@@H](CCCNC(=N)N)C(=O)N[C@H](C(N)=O)C(C)C)C(C)C [capa-2] |  |  |  |  | EC50 (capaR (CG14575)): 4.32 nM |
| SVPFKPRL-NH2 [Drm-PK-2, Drosophila pyrokinin, SVPFKPRLamide] | do not have effects on either capaR | do not have effects on either capaR (Fig. 3A) or NMUR 2 | not with Drm-PK-1, hugg, Drm-PK-2 | stimulates increased [Ca^2+]i levels |  |
| B1 |  |  |  |  | [Ca2+]i in S2 cells expressing NMUR 2 and apoaequorin, dose-response to NMU-25 [1]: 0.91 nM; [Ca2+]i, dose-response to NMU-25; first of two values given 'respectively', probably capaR- and apoaequorin-co-transfected S2 cells [2]: 21.8 nM; [Ca2+]i, dose-response to NMU-25; second of two values given 'respectively', probably intact tubules expressing apoaequorin in principal cells (endogenous capaR) [2]: 27.1 nM |
| B2 |  |  |  |  | [Ca2+]i (aequorin luminescence) in S2 cells expressing capaR and apoaequorin, dose-response to capa-1 [3]: 3.06 nM |
| B3 |  |  |  |  | [Ca2+]i (aequorin luminescence) in S2 cells expressing capaR and apoaequorin, dose-response to capa-2 [3]: 4.32 nM |
